Results on five compounds are retold here after patent US11596644B2, “Method for treating post-prandial hypoglycemia” (AVOLYNT, priority 2018, dated 2023).

Experiment [1] has as its system STZ-induced diabetic rats. Kind of experiment: OGTT in STZ-induced diabetic rats (Example 8). The format is in vivo, rat. Conditions: for Plasma glucose 0 hr: before dosing; for Plasma glucose 0 hr / Plasma glucose 0.5 hr / Plasma glucose 1 hr / Plasma glucose 2 hr / Plasma glucose 3 hr / ΔAUC (0-1) / ΔAUC (0-1) (% of Control): glucose 2 g/kg, mean ± S.E.M.; for PG elevation after glucose administration: 0.03 and 0.1 mg/kg oral, OGTT 2 g/kg. The method, then: (§1) Study in diabetic rats with glucose. Diabetic rats, induced by intravenous injection of streptozotocin (STZ; 40 mg/kg), were used to determining plasma glucose concentration (PG) 1 hr after oral glucose tolerance test (OGTT). […] Blood was collected via the caudal artery immediately before dosing and 0.5, 1, 2, and 3 hr after dosing. The glucose concentration measurement in plasma used Glucose CII-Test Wako kit (Wako Pure Chemicals Industries, Ltd., Osaka, Japan). The variables used for efficacy assessment were the measurement values of the plasma glucose concentration and the area under the curve for plasma glucose concentration through 1 hr after loading (ΔAUC0-1 hr). The ΔAUC0-1 hr for plasma glucose was calculated based on the trapezoid method using the change of plasma glucose concentrations from pre-value (0 hr).

For experiment [2], the system named is STZ-induced diabetic rats. Briefly: Oral mixed-carbohydrate tolerance test (OMCTT) in STZ-induced diabetic rats (Example 9). It counts as in vivo, rat. Conditions: for Plasma glucose 0 hr: before dosing; for Plasma glucose 0 hr / Plasma glucose 0.5 hr / Plasma glucose 1 hr / Plasma glucose 2 hr / Plasma glucose 3 hr / ΔAUC (0-1) / ΔAUC (0-1) (% of Control): mixed-carbohydrate load, mean ± S.E.M.; for PG elevation after glucose administration: 0.03 and 0.1 mg/kg oral, OMCTT. As for the experimental part:
as §1, with “with mixed carbohydrates.” for “with glucose.”, “oral mixed-carbohydrate” for “oral glucose”, “test (OMCTT).” for “test (OGTT).”

Experiment [3] deals with healthy adult male volunteers. Briefly: Repeat dose study in humans, pharmacodynamic parameters after meals. The format is in vivo, human. Conditions: repeat dosing. The method, then: Repeat dose study in humans. Oral doses of 2 mg, 5 mg, 10 mg, 20 mg, of mizagliflozin, placebo or miglitol 50 mg per dose three times daily to healthy adult male volunteers by a randomized, placebo-controlled, parallel-group, double-blind comparison method. The dose was orally administered with approximately 150 mL of water once daily immediately before breakfast on Days 1 and 13, and three times daily immediately before every meal on Days 3 to 12.
Changes in the following parameters and ΔAUC from 0 to t* hours after breakfast, lunch, and evening meal were measured: Blood glucose level, Serum insulin concentration, Blood active GLP-1 concentration, and Blood total GIP concentration, where t=0.5, 1, 1.5, 2, and 3 (t=0.5, 1, 1.5, 2, 3, and 5 only after breakfast).
In the miglitol group, hyperglycemia was suppressed after breakfast, lunch, and evening meal, as compared to the placebo group. […] These pharmacodynamic effects more or less persisted during 10-day repeated administration. There was no correlation between plasma mizagliflozin concentration and the pharmacodynamic effects. Measurements in Tables 5-8 were performed on Day 3 after breakfast.

[4] abbreviates: 50 mg per dose, Day 3 after breakfast.

Marks after values point to notes of the source that are not given here.

As to `Cc1cc(OCCCNCC(N)=O)ccc1Cc1c(O[C@@H]2O[C@H](CO)[C@@H](O)[C@H](O)[C@H]2O)n[nH]c1C(C)C` [KGA-2588], in experiment [1] (0.03 mg/kg oral), the “Plasma glucose 0 hr” value is 137 ± 6 mg/dL, the “Plasma glucose 0.5 hr” value was 351 ± 29 mg/dL, the “Plasma glucose 1 hr” value is recorded as 363 ± 48 mg/dL and the “Plasma glucose 2 hr” value amounted to 185 ± 25 mg/dL. Further, in experiment [1] (0.03 mg/kg oral), the “Plasma glucose 3 hr” value is 101 ± 4 mg/dL, the “ΔAUC (0-1)” value came to 163 ± 23 mg·h/dL and the “ΔAUC (0-1) (% of Control)” value was 84 ± 12 % of Control. In experiment [1] (0.1 mg/kg oral), the “Plasma glucose 0 hr” value is 128 ± 8 ^ mg/dL, the “Plasma glucose 0.5 hr” value is 249 ± 32^y mg/dL, the “Plasma glucose 1 hr” value was 286 ± 51^ mg/dL and the “Plasma glucose 2 hr” value is reported as 221 ± 33^x mg/dL. Also, in experiment [1] (0.1 mg/kg oral), the “Plasma glucose 3 hr” value is 145 ± 5^z mg/dL, the “ΔAUC (0-1)” value is listed as 100 ± 23^x mg · dL^−1 · hr and the “ΔAUC (0-1) (% of Control)” value is given as 51 ± 12^x % of Control. For the same compound, the “PG elevation after glucose administration” value (shortened to “PG elevation”) in experiment [1] is on record as “inhibited PG elevation after glucose administration dose dependently”. In addition, in experiment [2] (0.03 mg/kg oral), the “Plasma glucose 0 hr” value is recorded as 120 ± 3 mg/dL, the “Plasma glucose 0.5 hr” value is 291 ± 22 mg/dL, the “Plasma glucose 1 hr” value was 248 ± 17 mg/dL and the “Plasma glucose 2 hr” value worked out at 109 ± 7 mg/dL. Moreover, in experiment [2] (0.03 mg/kg oral), the “Plasma glucose 3 hr” value is on record as 100 ± 6 mg/dL, the “ΔAUC (0-1)” value stood at 117 ± 14 mg·h/dL and the “ΔAUC (0-1) (% of Control)” value is 72 ± 9 % of Control. In experiment [2] (0.1 mg/kg oral), the “Plasma glucose 0 hr” value is on record as 123 ± 8 mg/dL, the “Plasma glucose 0.5 hr” value is reported as 258 ± 25^x mg/dL, the “Plasma glucose 1 hr” value is 224 ± 23 mg/dL and the “Plasma glucose 2 hr” value was 132 ± 4 mg/dL. For the same compound, in experiment [2] (0.1 mg/kg oral), the “Plasma glucose 3 hr” value turned out to be 114 ± 6 mg/dL, the “ΔAUC (0-1)” value came out at 93 ± 13 mg·h/dL and the “ΔAUC (0-1) (% of Control)” value is given as 57 ± 8 % of Control. For the same compound, in experiment [2], the “PG elevation” value is recorded as “inhibited PG elevation after glucose administration dose dependently”.
Regarding `CC(C)c1[nH]nc(O[C@@H]2O[C@H](CO)[C@@H](O)[C@H](O)[C@H]2O)c1Cc1ccc(CCCC(=O)NC(C)(C)C(=O)N2CCNCC2)cc1` [KGA-2891], the “PG elevation” value in experiment [1] and in experiment [2] was “inhibited PG elevation after glucose administration dose dependently” each time.
For `OCCN1C[C@H](O)[C@@H](O)[C@H](O)[C@H]1CO` [Miglitol, miglitol, reference compound], in experiment [3] (setting [4]), the “AUC 0-5 GIP” value was 897.03 pg·h/mL, the “AUC 0-5 GLP-1 (active)” value is 20.5 pmol·h/L, the “AUC 0-5 Insulin” value came to 138.33 uU*h/ml and the “AUC 0-5 glucose” value is 543.7 mg·h/dL. In addition, in experiment [3] (setting [4]), the “GIP (peak)” value was 235 pg/mL, the “GLP-1 (active) (peak)” value is on record as 6.21 pmol/L, the “Glucose (peak)” value is reported as 121.6 mg/dL and the “Insulin (peak)” value stood at 40.4 uU/ml. In experiment [3] (setting [4]), the “Time (h) to peak, GIP” value was found to be 3 h; the “Time (h) to peak, GLP-1 (active)” value is 0.5 h; the “Time (h) to peak, glucose” value came out at 1.5 h; the “Time (h) to peak, insulin” value worked out at 2 h. Also, in experiment [3] (healthy adult male volunteers), the “active GLP-1 concentration” value is on record as “a tendency toward increase”; the “hyperglycemia after breakfast, lunch, and evening meal” value is recorded as “suppressed”; the insulin secretion entry is “inhibition of insulin secretion”; the “total GIP concentration” value is “inhibition of increase in total GIP concentration”. Further, the “total GLP-1 concentration” value in experiment [3] (healthy adult male volunteers) is given as “an increase in total GLP-1 concentration”.
For `Cc1cc(OCCCN)ccc1Cc1c(O[C@@H]2O[C@H](CO)[C@@H](O)[C@H](O)[C@H]2O)n[nH]c1C(C)C` [KGA-2586], in experiment [1] (0.03 mg/kg oral), the “Plasma glucose 0 hr” value is recorded as 128 ± 4 mg/dL, the “Plasma glucose 0.5 hr” value was determined as 351 ± 22 mg/dL, the “Plasma glucose 1 hr” value came out at 350 ± 32 mg/dL and the “Plasma glucose 2 hr” value turned out to be 154 ± 20 mg/dL. In experiment [1] (0.03 mg/kg oral), the “Plasma glucose 3 hr” value was found to be 86 ± 4 mg/dL, the “ΔAUC (0-1)” value was determined as 167 ± 20 mg·h/dL and the “ΔAUC (0-1) (% of Control)” value is listed as 86 ± 10 % of Control. In experiment [1] (0.1 mg/kg oral), the “Plasma glucose 0 hr” value is reported as 121 ± 8 ^ mg/dL, the “Plasma glucose 0.5 hr” value is given as 236 ± 18^z mg/dL, the “Plasma glucose 1 hr” value is listed as 257 ± 24^x mg/dL and the “Plasma glucose 2 hr” value is on record as 193 ± 21^x mg/dL. In addition, in experiment [1] (0.1 mg/kg oral), the “Plasma glucose 3 hr” value is recorded as 105 ± 12^ mg/dL, the “ΔAUC (0-1)” value is on record as 91 ± 11^y mg · dL^−1 · hr and the “ΔAUC (0-1) (% of Control)” value is 47 ± 6^y % of Control. Further, in experiment [1], the “PG elevation” value is reported as “inhibited PG elevation after glucose administration dose dependently”. Further, in experiment [2] (0.03 mg/kg oral), the “Plasma glucose 0 hr” value was found to be 118 ± 8 mg/dL, the “Plasma glucose 0.5 hr” value was 269 ± 5^y mg/dL, the “Plasma glucose 1 hr” value is 235 ± 8 mg/dL and the “Plasma glucose 2 hr” value came out at 112 ± 11 mg/dL. In experiment [2] (0.03 mg/kg oral), the “Plasma glucose 3 hr” value was 108 ± 10 mg/dL, the “ΔAUC (0-1)” value is reported as 105 ± 4^x mg · dL^−1 · hr and the “ΔAUC (0-1) (% of Control)” value is listed as 64 ± 2^x % of Control. For the same compound, in experiment [2] (0.1 mg/kg oral), the “Plasma glucose 0 hr” value is recorded as 126 ± 7^ mg/dL, the “Plasma glucose 0.5 hr” value is 213 ± 11^z mg/dL, the “Plasma glucose 1 hr” value was 215 ± 13 mg/dL and the “Plasma glucose 2 hr” value is given as 144 ± 12 mg/dL. Besides, in experiment [2] (0.1 mg/kg oral), the “Plasma glucose 3 hr” value is reported as 108 ± 8^ mg/dL, the “ΔAUC (0-1)” value is 65 ± 6^z mg · dL^−1 · hr and the “ΔAUC (0-1) (% of Control)” value was 40 ± 4^z % of Control. For the same compound, the “PG elevation” value in experiment [2] is recorded as “inhibited PG elevation after glucose administration dose dependently”.
With `Cc1cc(OCCCNCCC(N)=O)ccc1Cc1c(O[C@@H]2O[C@H](CO)[C@@H](O)[C@H](O)[C@H]2O)n[nH]c1C(C)C` [KGA-2727], in experiment [1] (0.03 mg/kg oral), the “Plasma glucose 0 hr” value was determined as 120 ± 9 mg/dL, the “Plasma glucose 0.5 hr” value is 354 ± 34 mg/dL, the “Plasma glucose 1 hr” value came out at 342 ± 42 mg/dL and the “Plasma glucose 2 hr” value amounted to 155 ± 24 mg/dL. Moreover, in experiment [1] (0.03 mg/kg oral), the “Plasma glucose 3 hr” value was found to be 85 ± 6 mg/dL, the “ΔAUC (0-1)” value came out at 172 ± 21 mg·h/dL and the “ΔAUC (0-1) (% of Control)” value is reported as 89 ± 11 % of Control. In experiment [1] (0.1 mg/kg oral), the “Plasma glucose 0 hr” value is 116 ± 6 ^ mg/dL, the “Plasma glucose 0.5 hr” value is 233 ± 15^y mg/dL, the “Plasma glucose 1 hr” value was 262 ± 19^ mg/dL and the “Plasma glucose 2 hr” value is given as 194 ± 12^x mg/dL. Moreover, in experiment [1] (0.1 mg/kg oral), the “Plasma glucose 3 hr” value is 102 ± 16^ mg/dL, the “ΔAUC (0-1)” value is listed as 95 ± 14^y mg · dL^−1 · hr and the “ΔAUC (0-1) (% of Control)” value is reported as 49 ± 7^y % of Control. For the same compound, the “PG elevation” value in experiment [1] was “inhibited PG elevation after glucose administration dose dependently”. Also, in experiment [2] (0.03 mg/kg oral), the “Plasma glucose 0 hr” value turned out to be 114 ± 7 mg/dL, the “Plasma glucose 0.5 hr” value is 317 ± 28 mg/dL, the “Plasma glucose 1 hr” value was determined as 250 ± 30 mg/dL and the “Plasma glucose 2 hr” value was 114 ± 5 mg/dL. Further, in experiment [2] (0.03 mg/kg oral), the “Plasma glucose 3 hr” value is 104 ± 7 mg/dL, the “ΔAUC (0-1)” value turned out to be 135 ± 20 mg·h/dL and the “ΔAUC (0-1) (% of Control)” value is given as 83 ± 12 % of Control. In experiment [2] (0.1 mg/kg oral), the “Plasma glucose 0 hr” value was 124 ± 8 mg/dL, the “Plasma glucose 0.5 hr” value is listed as 240 ± 17^y mg/dL, the “Plasma glucose 1 hr” value was 248 ± 29 mg/dL and the “Plasma glucose 2 hr” value was found to be 133 ± 4 mg/dL. In addition, in experiment [2] (0.1 mg/kg oral), the “Plasma glucose 3 hr” value is on record as 106 ± 9 mg/dL, the “ΔAUC (0-1)” value was 89 ± 12 mg·h/dL and the “ΔAUC (0-1) (% of Control)” value is reported as 55 ± 7 % of Control. For the same compound, in experiment [2], the “PG elevation” value is “inhibited PG elevation after glucose administration dose dependently”.
